Results as given in ChEMBL document CHEMBL1201862, “PubChem BioAssay data set” (2004).
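Method: 48-hour compound exposure of cells in 96-well plates, five concentrations, linear interpolation of endpoints. The concentration for 50% growth inhibition is given as GI50.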 Activity calls are given as the source filed them. No stated cut-off is given here; in the data, active = GI50 up to about 1.1 µM and inactive = higher.

Tests used:
Assay in all cases: inhibition of tumour cell growth, NCI panel, 48 h
SW-620 = test system: SW-620
HL-60 = test system: HL-60
MOLT-4 = test system: MOLT-4
SNB-19 = test system: SNB-19
SF-539 = test system: SF-539
A549 = test system: A549
OVCAR-8 = test system: OVCAR-8
M14 = test system: M14
COLO 205 = test system: COLO 205
NCI-H226 = test system: NCI-H226
IGROV-1 = test system: IGROV-1
U-251 = test system: U-251
A498 = test system: A498
K562 = test system: K562
SK-MEL-2 = test system: SK-MEL-2
LXFL 529 = test system: LXFL 529
HOP-18 = test system: HOP-18
ACHN = test system: ACHN
SR = test system: SR
SNB-75 = test system: SNB-75
SN12C = test system: SN12C
SK-MEL-28 = test system: SK-MEL-28
OVCAR-4 = test system: OVCAR-4
OVCAR-3 = test system: OVCAR-3
KM12 = test system: KM12
HCC 2998 = test system: HCC 2998
DLD-1 = test system: DLD-1
SF-268 = test system: SF-268
M19-MEL = test system: M19-MEL
OVCAR-5 = test system: OVCAR-5
HOP-62 = test system: HOP-62
CAKI-1 = test system: CAKI-1
HT-29 = test system: HT-29
UO-31 = test system: UO-31
NCI-H23 = test system: NCI-H23
SK-MEL-5 = test system: SK-MEL-5
UACC-257 = test system: UACC-257
RPMI-8226 = test system: RPMI-8226
SNB-78 = test system: SNB-78
UACC-62 = test system: UACC-62
DMS-114 = test system: DMS-114
LOX IMVI = test system: LOX IMVI
HCT-116 = test system: HCT-116
Malme-3M = test system: Malme-3M
SK-OV-3 = test system: SK-OV-3
EKVX = test system: EKVX
KM-20L2 = test system: KM-20L2
CCRF-CEM = test system: CCRF-CEM
NCI-H460 = test system: NCI-H460
SF-295 = test system: SF-295
NCI-H522 = test system: NCI-H522
HOP-92 = test system: HOP-92
XF498 = test system: XF498
RXF 393 = test system: RXF 393
TK-10 = test system: TK-10

Measured: GI50

CCOC(=O)C1=C(C)N(C2OC(COC(=O)c3ccccc3)C(OC(=O)c3ccccc3)C2OC(=O)c2ccccc2)C(=S)NC1c1ccccc1 (stereo unspecified)
inactive: SW-620 33.3 µM | HL-60 14.4 µM | MOLT-4 16.1 µM | SNB-19 55.1 µM | SF-539 54.8 µM | A549 37.4 µM | OVCAR-8 44.4 µM | M14 25.7 µM | COLO 205 33.6 µM | NCI-H226 31.1 µM | IGROV-1 46.8 µM | U-251 34.9 µM | A498 28.2 µM | K562 17.1 µM | SK-MEL-2 64.3 µM | LXFL 529 27.2 µM | HOP-18 16.7 µM | ACHN 25.1 µM | SR 20 µM | SNB-75 30.4 µM | SN12C 40.4 µM | SK-MEL-28 49.2 µM | OVCAR-4 29.4 µM | OVCAR-3 21.9 µM | KM12 50.2 µM | HCC 2998 49.2 µM | DLD-1 38.9 µM | SF-268 44.6 µM | M19-MEL 33.1 µM | OVCAR-5 61.7 µM | HOP-62 > 100 µM | CAKI-1 24.4 µM | HT-29 50.6 µM | UO-31 24.2 µM | NCI-H23 29.1 µM | SK-MEL-5 18.4 µM | UACC-257 33.5 µM | RPMI-8226 16.1 µM | SNB-78 31.8 µM | UACC-62 29.3 µM | DMS-114 19 µM | LOX IMVI 58.9 µM | HCT-116 29.9 µM | Malme-3M 25.5 µM | SK-OV-3 60.1 µM | EKVX 6.79 µM | KM-20L2 43.6 µM | CCRF-CEM 23.1 µM | NCI-H460 31.4 µM | SF-295 61.7 µM | NCI-H522 22.1 µM

O=C1C(Cl)N(c2cccc(Cl)c2)C1c1c[nH]c2ccccc12 (stereo unspecified)
inactive: SW-620 > 100 µM | HL-60 > 100 µM | MOLT-4 > 100 µM | SNB-19 > 100 µM | SF-539 > 100 µM | A549 > 100 µM | OVCAR-8 > 100 µM | M14 > 100 µM | COLO 205 > 100 µM | IGROV-1 > 100 µM | U-251 > 100 µM | K562 > 100 µM | SK-MEL-2 > 100 µM | HOP-92 > 100 µM | LXFL 529 > 100 µM | XF498 > 100 µM | SR > 100 µM | SNB-75 > 100 µM | SN12C > 100 µM | SK-MEL-28 > 100 µM | RXF 393 > 100 µM | OVCAR-4 > 100 µM | OVCAR-3 > 100 µM | KM12 > 100 µM | SF-268 > 100 µM | M19-MEL > 100 µM | HOP-62 > 100 µM | HT-29 > 100 µM | UO-31 > 100 µM | NCI-H23 > 100 µM | SK-MEL-5 > 100 µM | UACC-257 > 100 µM | RPMI-8226 > 100 µM | UACC-62 > 100 µM | DMS-114 > 100 µM | HCT-116 > 100 µM | Malme-3M > 100 µM | TK-10 > 100 µM | SK-OV-3 > 100 µM | EKVX > 100 µM | KM-20L2 > 100 µM | CCRF-CEM > 100 µM | NCI-H460 > 100 µM | SF-295 > 100 µM | NCI-H522 > 100 µM
